Entries after “also recorded” stand apart in the source; their conditions may differ. Like-named read-outs stand apart in the source and are kept apart here.
Assays:
Format in all cases: cell-based
[1] = test system: BzATP-induced release of IL-1β from human monocytic THP-1 cells; assay: BzATP-induced IL-1β release by LPS-primed human monocytic THP-1 cells (ELISA); settings: for Effect on BzATP-induced IL-1β release in the absence of ACh: LPS-primed THP-1
Procedure: THP-1 cells were primed with lipopolysaccharide (LPS; 1 μg/mL, 5 h) followed by stimulation with the P2X7 receptor agonist BzATP (2′/3′-O-(4-benzoylbenzoyl)-adenosine-5′-triphosphate, tri(triethylammonium) salt) for 40 min to induce IL-1β release, which was quantified by ELISA.
Experiments on human monocytic THP-1 cells (German Collection of Microorganisms and Cell Cultures, Braunschweig, Germany, Cat# ACC16) were performed as described before. […] The supernatants were collected and stored for later IL-1β measurements using the Human IL-1β/IL-1F2 DuoSet ELISA from R&D Systems (Minneapolis MN, USA, Cat# DY201). Cell viability was assessed by measuring lactate dehydrogenase (LDH) activity in the supernatants using the CytoTox 96 Non-Radioactive Cytotoxicity Assay (Promega, Madison WI, USA; Cat# G1780). LDH activities were expressed as a percentage of total LDH activity from lysed control cells. Data on the BzATP-induced IL-1β release and LDH activity were analyzed using SPSS (Version 29.0.2.0, IBM, Armonk, NY, United States) and visualized using Inkscape version 0.48.5 r10040 (Free and Open Source Software licensed under the GPL). The data were analyzed first by the Friedman test.

hα9α10 nAChRs [2] = target: T1, hα9α10 nAChRs (Homo sapiens, UniProt Q9GZZ6+Q9UGM1); assay: Two-electrode voltage clamp, inhibition of ACh-evoked currents at hα9α10 nAChRs expressed in Xenopus laevis oocytes; settings: for IC50 / n H (Hill coefficient of inhibition): 6 μM ACh; for IC50: 5 min preincubation with compound, holding potential −80 mV
T1 construct: host or cells: Xenopus laevis oocytes, cRNA-injected (α9:α10 cRNA ratio 1:1)
T1 sequence (Q9UGM1 26-479 limits assumed): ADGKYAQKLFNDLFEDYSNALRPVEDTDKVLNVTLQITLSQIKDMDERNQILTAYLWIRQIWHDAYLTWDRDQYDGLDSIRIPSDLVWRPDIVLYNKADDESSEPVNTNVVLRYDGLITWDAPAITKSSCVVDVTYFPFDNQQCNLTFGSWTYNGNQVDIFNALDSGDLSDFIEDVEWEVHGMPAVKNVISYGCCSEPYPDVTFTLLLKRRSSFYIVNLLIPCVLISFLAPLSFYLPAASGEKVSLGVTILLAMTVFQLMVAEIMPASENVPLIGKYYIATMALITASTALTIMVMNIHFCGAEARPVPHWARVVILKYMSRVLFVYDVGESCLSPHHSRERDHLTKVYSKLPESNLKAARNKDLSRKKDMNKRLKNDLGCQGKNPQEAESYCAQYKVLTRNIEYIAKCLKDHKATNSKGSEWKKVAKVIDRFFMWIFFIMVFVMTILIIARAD
T1 sequence (Q9GZZ6 25-450): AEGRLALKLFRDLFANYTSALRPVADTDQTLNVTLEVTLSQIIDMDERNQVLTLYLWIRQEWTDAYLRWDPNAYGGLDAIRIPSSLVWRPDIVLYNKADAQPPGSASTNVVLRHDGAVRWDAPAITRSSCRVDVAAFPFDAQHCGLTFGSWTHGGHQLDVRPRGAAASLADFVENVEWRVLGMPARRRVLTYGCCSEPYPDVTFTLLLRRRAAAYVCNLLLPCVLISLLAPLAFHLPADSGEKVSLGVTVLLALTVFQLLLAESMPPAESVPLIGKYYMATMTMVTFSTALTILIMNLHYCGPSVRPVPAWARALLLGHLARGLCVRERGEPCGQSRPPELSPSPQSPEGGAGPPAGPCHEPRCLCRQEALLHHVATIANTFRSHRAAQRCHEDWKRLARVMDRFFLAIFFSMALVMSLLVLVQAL
Excerpt: (§1) The protocols were approved by the Animal Ethics Committees of the Victor Chang Cardiac Research Institute, Sydney, and the University of Wollongong (project number AE 20/17). Human α9 and α10 nAChR clones were obtained from OriGene (Rockville, MD, USA) and subcloned into the pT7TS vector. The human α7 nAChR clone, in the plasmid pMXT, was kindly provided by J. Lindstrom (University of Pennsylvania, USA). Constructs of human nAChR subunits were linearized and used for in vitro cRNA transcription with the SP6/T7 mMessage mMachine transcription kit (AMBION, Forster City, CA, USA).
(§2) The cRNA concentration was verified spectrophotometrically and by gel electrophoresis.
(§3) Electrophysiological recordings were conducted 2–5 days after cRNA injection using a HiClamp automated two-electrode voltage-clamp screening system (MultiChannel Systems GmbH, Reutlingen, Germany) with a holding potential of –80 mV. To prevent the activation of endogenous Ca^2+-activated chloride channels due to the Ca^2+ permeability of α9-containing nAChRs, oocytes were preincubated with 100 μM BAPTA-AM for approximately 3 h.
For concentration–response experiments assessing modulation of ACh-evoked responses, oocytes were initially superfused with ND96 or ND115 solution, depending on the receptor subtype. […] After ACh application, a 3 min washout was performed. Oocytes were then incubated with the test compound for 5 min, followed by coapplication of the compound and ACh in a continuously flowing bath solution. All compounds were prepared in ND96 or ND115 with 0.1% bovine serum albumin (BSA).

hα9α10 nAChRs [3] = target: T1, hα9α10 nAChRs; assay: Two-electrode voltage clamp, compound-evoked currents (compound applied alone) at hα9α10 nAChRs in Xenopus laevis oocytes
Excerpt: as §1, §2, §3
Concentration–response experiments assessing compound-evoked currents were performed by initially superfusing α9-containing nAChRs oocytes with ND115 solution. Test compounds were then applied at concentrations ranging from 300 pM to 30 μM, followed by a 3 min washout period.

hα9 nAChRs [4] = target: T2, hα9 nAChRs (Homo sapiens, UniProt Q9UGM1); assay: Two-electrode voltage clamp, inhibition of ACh-evoked currents at hα9 nAChRs in Xenopus laevis oocytes
T2 construct: host or cells: Xenopus laevis oocytes, cRNA-injected
T2 sequence (Q9UGM1 26-479 limits assumed): as the sequence (Q9UGM1 26-479 limits assumed) above

hα7 nAChRs [5] = target: T3, hα7 nAChRs (Homo sapiens, UniProt P36544); assay: Two-electrode voltage clamp, compound-evoked currents at hα7 nAChRs in Xenopus laevis oocytes; settings: compound applied alone
T3 construct: host or cells: Xenopus laevis oocytes, cRNA-injected (10 ng)
T3 sequence (P36544 23-502): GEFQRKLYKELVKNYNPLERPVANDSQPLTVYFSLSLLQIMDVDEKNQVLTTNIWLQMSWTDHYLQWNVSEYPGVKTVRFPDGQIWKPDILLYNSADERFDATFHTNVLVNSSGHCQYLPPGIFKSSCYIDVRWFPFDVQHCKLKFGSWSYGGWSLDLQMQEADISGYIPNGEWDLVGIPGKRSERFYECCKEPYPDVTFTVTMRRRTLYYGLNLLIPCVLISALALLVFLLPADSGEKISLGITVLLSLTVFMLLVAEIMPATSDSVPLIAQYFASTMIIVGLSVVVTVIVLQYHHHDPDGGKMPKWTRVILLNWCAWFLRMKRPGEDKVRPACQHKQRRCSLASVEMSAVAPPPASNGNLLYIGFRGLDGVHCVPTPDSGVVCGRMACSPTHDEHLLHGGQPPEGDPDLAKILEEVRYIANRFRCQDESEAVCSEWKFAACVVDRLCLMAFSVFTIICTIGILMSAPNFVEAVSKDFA
Procedure: Additionally, five compounds of the series were tested on the homomeric hα7 and hα9 nAChRs.
as §1, §2, §3

hα9 nAChRs [6] = target: T2, hα9 nAChRs; assay: Two-electrode voltage clamp, compound-evoked currents at hα9 nAChRs in Xenopus laevis oocytes
hα7 nAChRs [7] = target: T3, hα7 nAChRs; assay: Two-electrode voltage clamp, inhibition of ACh-evoked currents at hα7 nAChRs in Xenopus laevis oocytes
[8] = compound applied alone (300 pM to 30 μM), normalized to response at highest concentration, read-out: EC50
[9] = compound applied alone, read-out: EC50

Row | SMILES | IC50 (hα9α10 nAChRs [2]) [µM] | EC50 (hα9α10 nAChRs [3]; [8]) [µM] | IC50 ratio to Cpd 1 (hα9α10 nAChRs [2]) | n H (Hill coefficient of inhibition) (hα9α10 nAChRs [2]) | EC50 ratio to Cpd 1 (hα9α10 nAChRs [3]) | n H (Hill coefficient of activation) (hα9α10 nAChRs [3]; compound applied alone) | also measured
1 | CC(=O)OCC[N+](C)(C)C [ACh, acetylcholine] | – | – | – | – | – | – | Effect on BzATP-induced IL-1β release ([1]; ACh 10 μM applied shortly before BzATP): significantly reduced
2 | CC[N+](CC)(CC)CCOc1ccc(CCc2ccccc2)cc1 [Compound 4] | 0.189 | 1.14 | – | – | – | – | –
3 | C[N+](C)(CCOc1ccc(/C=C/c2ccccc2)cc1)C1CCOCC1.[I-] [Compound 6, (E)-N,N-Dimethyl-N-(2-(4-styrylphenoxy)ethyl)tetrahydro-2H-pyran-4-aminium Iodide] | 0.055 | 0.185 | 0.9 | 2.1 | 0.5 | 2.4 | –
4 | C[N+](C)(CCOc1ccc(/C=C/c2ccccc2)cc1)C1CCCC1.[I-] [Compound 7, (E)-N,N-Dimethyl-N-(2-(4-styrylphenoxy)ethyl)cyclopentanaminium Iodide] | 0.0221 | 0.175 | 0.4 | 1.7 | 0.5 | 1.6 | –
5 | C[N+](C)(CCOc1ccc(/C=C/c2ccccc2)cc1)C1CCCCCC1.[I-] [Compound 8, (E)-N,N-Dimethyl-N-(2-(4-styrylphenoxy)ethyl)cycloheptanaminium Iodide] | 0.124 | 0.3 | 2.1 | 2.6 | 0.8 | 1.6 | –
6 | C[N+](C)(CCOc1ccc(/C=C/c2ccccc2)cc1)c1ccccc1.[I-] [Compound 9, (E)-N,N-Dimethyl-N-(2-(4-styrylphenoxy)ethyl)benzenaminium Iodide] | 0.0951 | 0.474 | 1.6 | 2.1 | 1.2 | 3.3 | –
7 | C[N+](C)(CCOc1ccc(/C=C/c2ccccc2)cc1)Cc1ccccc1.[Br-] [Compound 10, (E)-N-Benzyl-N,N-dimethyl-2-(4-styrylphenoxy)ethanaminium Bromide] | 0.123 | 0.449 | 2.1 | 2.1 | 1.2 | 2.4 | –
8 | C[N+](CCOc1ccc(/C=C/c2ccccc2)cc1)(C1CCCC1)C1CCCC1.[I-] [Compound 12, (E)-N-Cyclopentyl-N-methyl-N-(2-(4-styrylphenoxy)ethyl)cyclopentanaminium Iodide] | 0.378 | 1.71 | 6.3 | 3.0 | 4.4 | 1.2 | –
9 | C[N+](CCOc1ccc(/C=C/c2ccccc2)cc1)(Cc1ccccc1)Cc1ccccc1 [Compound 13] | 1.11 | 7.04 | – | – | – | – | EC50 (hα9α10 nAChRs [3]; [9]): > 5 µM
10 | C[N+](C)(CCCOc1ccc(/C=C/c2ccccc2)cc1)C1CCCCC1.[I-] [Compound 14, (E)-N,N-Dimethyl-N-(3-(4-styrylphenoxy)propyl)cyclohexanaminium Iodide] | 0.0989 | 0.511 | 1.6 | 2.1 | 1.3 | 3.0 | –
11 | C[N+](C)(CCCCOc1ccc(/C=C/c2ccccc2)cc1)C1CCCCC1.[I-] [Compound 15, (E)-N,N-Dimethyl-N-(4-(4-styrylphenoxy)butyl)cyclohexanaminium Iodide] | 0.124 | 1.47 | 2.1 | 2.0 | 3.8 | 1.4 | –
12 | C[N+](C)(CCOc1ccc(CCc2ccccc2)cc1)C1CCCCC1.[I-] [Compound 16, N,N-Dimethyl-N-(2-(4-phenethylphenoxy)ethyl)cyclohexanaminium Iodide] | 0.168 | 0.482 | 2.8 | 3.8 | 1.3 | 3.2 | IC50 ratio to Cpd 1 (hα9 nAChRs [4]): 0.7; n H (Hill coefficient of inhibition) (hα9 nAChRs [4]; 50 μM ACh): 1.5; IC50 (hα9 nAChRs [4]; 50 μM ACh, 5 min preincubation): 0.133 µM; EC50 (hα7 nAChRs [5]): no agonist activity; EC50 ratio to Cpd 1 (hα9 nAChRs [6]): 1.1; n H (Hill coefficient of activation) (hα9 nAChRs [6]; compound applied alone): 2.4; EC50 (hα9 nAChRs [6]; [9]): 0.983 µM; IC50 ratio to Cpd 1 (hα7 nAChRs [7]): 1.0; n H (Hill coefficient of inhibition) (hα7 nAChRs [7]; 100 μM ACh): 1.8; IC50 (hα7 nAChRs [7]; 100 μM ACh, 5 min preincubation): 0.433 µM; Effect on the inhibitory effect of ACh on BzATP-induced IL-1β release ([1]; compound 100 pM + ACh 10 μM, LPS 1 μg/mL 5 h, BzATP 100 μM 40 min): efficiently antagonized the inhibitory effect of ACh; Effect on BzATP-induced IL-1β release in the absence of ACh ([1]; compound 100 pM): minor reduction; Effect on BzATP-induced IL-1β release in the absence of ACh ([1]; compound 100 nM): effectively and significantly inhibited
13 | CC[N+](CC)(CC)CCOc1ccc(-c2ccccc2)cc1 [Compound 17] | 0.117 | 0.479 | 1.9 | 1.4 | 1.2 | 3.3 | –
14 | CC[N+](CC)(CC)CCOc1ccc(C#Cc2ccccc2)cc1 [Compound 18] | 0.089 | 0.55 | 1.5 | 1.8 | 1.4 | 2.2 | –
15 | CC[N+](CC)(CC)CCOc1ccc(OCc2ccccc2)cc1 [Compound 19] | 0.207 | 1.02 | 3.4 | 1.6 | 2.6 | 1.9 | –
16 | CC[N+](CC)(CC)CCOc1ccc(COc2ccccc2)cc1 [Compound 20] | 0.139 | – | 2.3 | 1.7 (1.6–1.8) [8] | – | – | EC50 (hα9α10 nAChRs [3]; compound applied alone (300 pM to 30 μM), normalized to response at highest concentration): failed to activate; also recorded: failed to evoke currents; also recorded: No activity
